Data published in patent US20260365634A1, “HERBICIDAL PYRAZOLE COMPOUNDS” (SYNGENTA CROP PROTECTION AG, priority 2022, published 2026).

Experiments:
Format in all cases: in vivo
Conditions in all cases: 250 g/ha, evaluated after 13 days
[1] = system: Amaranthus palmeri (AMAPA); assay: Post-emergence herbicidal glasshouse test
Procedure: (§1) Seeds of a variety of test species are sown in standard soil in pots Amaranthus palmeri (AMAPA), Amaranthus retoflexus (AMARE), Echinochloa crus-galli (ECHCG), Ipomoea hederacea (IPOHE), Setaria faberi (SETFA). After cultivation for one day (pre-emergence) or after 8 days cultivation (post-emergence) under controlled conditions in a glasshouse (at 24/16 °C, day/night; 14 hours light; 65% humidity), the plants are sprayed with an aqueous spray solution derived from the formulation of the technical active ingredient in acetone/water (50:50) solution containing 0.5% Tween 20 (polyoxyethelyene sorbitan monolaurate, CAS RN 9005-64-5). Compounds are applied at 250 g/ha unless otherwise stated. The test plants are then grown in a glasshouse under controlled conditions in a glasshouse (at 24/16 °C, day/night; 14 hours light; 65% humidity) and watered twice daily. After 13 days for pre and post-emergence, the test is evaluated for the percentage damage caused to the plant. The biological activities are shown in the following table on a five-point scale (5=81-100%; 4=61-80%; 3=41-60%; 2=21-40%; 1=0-20%).

[2] = system: Amaranthus retoflexus (AMARE); assay: Post-emergence herbicidal glasshouse test
Procedure: as §1

[3] = system: Echinochloa crus-galli (ECHCG); assay: Post-emergence herbicidal glasshouse test
Procedure: as §1

[4] = system: Ipomoea hederacea (IPOHE); assay: Post-emergence herbicidal glasshouse test
Procedure: as §1

Setaria faberi (SETFA) [5] = assay: Post-emergence herbicidal glasshouse test
Procedure: as §1

[6] = system: Amaranthus palmeri (AMAPA); assay: Pre-emergence herbicidal glasshouse test
Procedure: as §1

[7] = system: Amaranthus retoflexus (AMARE); assay: Pre-emergence herbicidal glasshouse test
Procedure: as §1

[8] = system: Echinochloa crus-galli (ECHCG); assay: Pre-emergence herbicidal glasshouse test
Procedure: as §1

[9] = system: Ipomoea hederacea (IPOHE); assay: Pre-emergence herbicidal glasshouse test
Procedure: as §1

Setaria faberi (SETFA) [10] = assay: Pre-emergence herbicidal glasshouse test
Procedure: as §1

| SMILES | percentage damage caused to the plant (five-point scale), AMAPA [1] | percentage damage caused to the plant (five-point scale), AMARE [2] | percentage damage caused to the plant (five-point scale), ECHCG [3] | percentage damage caused to the plant (five-point scale), IPOHE [4] | percentage damage caused to the plant (five-point scale), SETFA (Setaria faberi (SETFA) [5]) | percentage damage caused to the plant (five-point scale), AMAPA [6] | percentage damage caused to the plant (five-point scale), AMARE [7] | percentage damage caused to the plant (five-point scale), ECHCG [8] | percentage damage caused to the plant (five-point scale), IPOHE [9] | percentage damage caused to the plant (five-point scale), SETFA (Setaria faberi (SETFA) [10]) |
| --- | --- | --- | --- | --- | --- | --- | --- | --- | --- | --- |
| FC(F)CCn1nc(C(F)(F)Cl)cc1Cc1ncc(Cl)cn1 [Compound 1.031] | 4 (61-80%) | 4 (61-80%) | 3 (41-60%) | 4 (61-80%) | 4 (61-80%) | 5 (81-100%) | 5 (81-100%) | 5 (81-100%) | 5 (81-100%) | 5 (81-100%) |
| FC(F)(Cl)c1cc(Cc2ncc(Cl)cn2)n(CCC2CC2)n1 [Compound 1.032] | 5 (81-100%) | 5 (81-100%) | 4 (61-80%) | 4 (61-80%) | 5 (81-100%) | 5 (81-100%) | 5 (81-100%) | 5 (81-100%) | 5 (81-100%) | 5 (81-100%) |
| C=Cn1nc(C(F)F)cc1Cc1ncc(Cl)cn1 [Compound 1.037] | 3 (41-60%) | 4 (61-80%) | 2 (21-40%) | 2 (21-40%) | 2 (21-40%) | 5 (81-100%) | 5 (81-100%) | 1 (0-20%) | 3 (41-60%) | 1 (0-20%) |
| FC(F)c1cc(Cc2ncc(Cl)cn2)n(CCn2ccc(C(F)(F)F)n2)n1 [Compound 1.038] | 1 (0-20%) | 1 (0-20%) | 1 (0-20%) | 1 (0-20%) | 1 (0-20%) | 2 (21-40%) | 1 (0-20%) | 2 (21-40%) | 1 (0-20%) | 2 (21-40%) |
